According to the supplement of paper PMC10331698:
± gives the standard deviation of the averaged measurements.

Tests used:
Experiment in all cases: level (log10 ratio to DMSO vehicle control); higher = higher biomarker level / cell amount than vehicle control
[1] = compound: O=C(O)C(F)(F)OC(F)(F)C(F)(F)OC(F)(F)C(F)(F)OC(F)(F)C(F)(F)C(F)(F)C(F)(F)F [Perfluoro-3,6,9-trioxatridecanoic acid] (in DMSO); conditions: 6700 nM
Experimental: (§1)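 BioMAP Diversity Plus panel of 12 human primary cell co-culture systems (3C, 4H, LPS, SAg, BT, BF4T, BE3C, CASM3C, HDF3CGF, KF3CT, MyoF, Mphg). Compounds were added 1 h before stimulation and left for 24 h (MyoF 48 h; BT 72 h for soluble read-outs or 6 d for IgG). Biomarkers were read by ELISA, cytotoxicity by SRB, PBMC viability and proliferation by Alamar Blue. Each well value was divided by the mean of 8 DMSO control wells on the same plate and log10 transformed; duplicate blinded samples were tested at 4 concentrations.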

[2] = compound: O=S(=O)(O)C(F)(F)C(F)(F)OC(F)(F)C(F)(F)F [Perfluoro(2-ethoxyethane)sulfonic acid] (in DMSO)
Experimental: as §1

[3] = compound: OCC(F)(F)OC(F)(F)C(F)(F)OC(F)(F)C(F)(F)OC(F)(F)CO [1H,1H,11H,11H-Perfluorotetraethylene glycol] (in DMSO)
Experimental: as §1

[4] = compound: O=C(O)C(F)(F)C(F)(F)C(F)(F)C(F)(F)C(=O)O [Octafluoroadipic acid] (in DMSO)
Experimental: as §1

[5] = compound: CN(C(=O)C(F)(F)C(F)(F)C(F)(F)F)[Si](C)(C)C [N-Methyl-N-trimethylsilylheptafluorobutyramide] (in DMSO)
Experimental: as §1

[6] = compound: O=C(O)CCC(F)(C(F)(F)F)C(F)(F)F [4,4-bis(Trifluoromethyl)-4-fluoropropanoic acid] (in DMSO)
Experimental: as §1

[7] = compound: CO[Si](C)(CCC(F)(F)C(F)(F)C(F)(F)C(F)(F)C(F)(F)C(F)(F)F)OC [Dimethoxymethyl((perfluorohexyl)ethyl)silane] (in DMSO)
Experimental: as §1

Test System	level (log10) [1]	level (log10) ([2]; 6700 nM)	level (log10) ([2]; 20000 nM)	level (log10) ([2]; 60000 nM)	level (log10) ([3]; 6700 nM)	level (log10) ([3]; 20000 nM)	level (log10) ([3]; 60000 nM)	level (log10) ([4]; 6700 nM)	level (log10) ([4]; 20000 nM)	level (log10) ([4]; 60000 nM)	level (log10) ([5]; 6700 nM)	level (log10) ([5]; 20000 nM)	level (log10) ([5]; 60000 nM)	level (log10) ([6]; 6700 nM)	level (log10) ([6]; 20000 nM)	level (log10) ([6]; 60000 nM)	level (log10) ([7]; 6700 nM)	level (log10) ([7]; 20000 nM)
3C:CCL2/MCP-1	0.0155 ± 0.021	-0.022 ± 0.03	-0.014 ± 0.014	-0.0095 ± 0.019	-0.001 ± 0.018	-0.005 ± 0.027	-0.015 ± 0.0057	-0.0115 ± 0.0064	-0.0105 ± 0.011	0.0135 ± 0.036	-0.009 ± 0.014	-0.0075 ± 0.0064	0.0005 ± 0.016	0.0005 ± 0.0092	0.0035 ± 0.012	0.0015 ± 0.0021	-0.0005 ± 0.0021	0.012 ± 0.0042
3C:CD54/ICAM-1	0.0005 ± 0.021	-0.0105 ± 0.028	-0.0095 ± 0.023	-0.01 ± 0.024	0.0015 ± 0.00071	-0.009 ± 0.0071	0.007	-0.007 ± 0.014	-0.0075 ± 0.018	-0.0065 ± 0.013	-0.0045 ± 0.022	-0.014 ± 0.0042	0.015 ± 0.011	-0.01 ± 0.017	-0.022 ± 0.024	-0.0085 ± 0.011	-0.008 ± 0.0085	0.0265 ± 0.016
3C:CD62E/E-Selectin	-0.0355 ± 0.0092	0.0125 ± 0.012	0	0.0125 ± 0.0064	-0.0145 ± 0.029	-0.008 ± 0.038	-0.0375 ± 0.036	-0.029 ± 0.0071	-0.004 ± 0.016	-0.0205 ± 0.0078	-0.0115 ± 0.015	-0.007 ± 0.0042	0.0015 ± 0.037	-0.0065 ± 0.016	-0.0165 ± 0.016	-0.0085 ± 0.012	-0.023 ± 0.0042	-0.0235 ± 0.005
3C:CD106/VCAM-1	-0.0335 ± 0.023	0.008 ± 0.033	0.002 ± 0.0071	0 ± 0.0085	-0.01 ± 0.0057	-0.015 ± 0.0071	-0.004 ± 0.011	0.0005 ± 0.019	-0.0015 ± 0.0092	0.0055 ± 0.00071	-0.0245 ± 0.0021	-0.01 ± 0.016	0.0025 ± 0.012	-0.0195 ± 0.018	-0.0215 ± 0.03	-0.0085 ± 0.023	-0.0115 ± 0.035	-0.009 ± 0.024
3C:CD141/Thrombomodulin	-0.0155 ± 0.0021	0.0085 ± 0.018	-0.0145 ± 0.036	-0.023 ± 0.0028	-0.0145 ± 0.039	0.005 ± 0.028	0.051 ± 0.021	0.0125 ± 0.025	0.016 ± 0.03	0.0195 ± 0.05	-0.024 ± 0.016	-0.022 ± 0.014	-0.0115 ± 0.0092	-0.035 ± 0.082	-0.021 ± 0.062	-0.0435 ± 0.069	-0.0035 ± 0.0021	-0.0275 ± 0.025
3C:CD142/Tissue Factor	-0.0085 ± 0.03	0.013 ± 0.0057	-0.001 ± 0.024	0.017 ± 0.0042	-0.0315 ± 0.037	-0.009 ± 0.0014	-0.013 ± 0.05	0.02 ± 0.061	0.0375 ± 0.067	0.0085 ± 0.061	0.0195 ± 0.044	0.02 ± 0.013	0.026 ± 0.033	0.024 ± 0.0099	0.0115 ± 0.0078	-0.002 ± 0.023	0.015 ± 0.02	0.021 ± 0.033
BE3C:Keratin 8/18	-0.293 ± 0.032	-0.007 ± 0.013	-0.0105 ± 0.013	-0.01 ± 0.011	0.0025 ± 0.049	-0.0065 ± 0.00071	-0.023 ± 0.025	-0.0095 ± 0.0078	-0.0105 ± 0.025	0.0095 ± 0.0021	-0.013 ± 0.023	0.001 ± 0.013	0.019 ± 0.0085	0.011 ± 0.0028	-0.0005 ± 0.025	-0.0045 ± 0.011	0.0155 ± 0.011	0.0075 ± 0.005
BE3C:MMP-1	-0.471 ± 0.023	-0.001 ± 0.0071	0.0055 ± 0.018	0.108 ± 0.069	-0.001 ± 0.0057	0.022	0.0915 ± 0.057	-0.0145 ± 0.025	-0.0205 ± 0.037	0.0155 ± 0.0021	-0.0015 ± 0.011	-0.02 ± 0.0071	0.0295 ± 0.033	0.0065 ± 0.035	0.0105 ± 0.059	0.006 ± 0.045	-0.0085 ± 0.03	0.034 ± 0.033
BE3C:MMP-9	-0.4295 ± 0.0021	-0.0015 ± 0.00071	-0.0005 ± 0.015	0.0265 ± 0.012	0 ± 0.017	-0.0345 ± 0.0021	-0.0795 ± 0.0035	-0.0065 ± 0.022	-0.002 ± 0.016	0.0065 ± 0.0064	-0.023 ± 0.0042	-0.012 ± 0.0085	0.015 ± 0.02	0.0085 ± 0.035	-0.024 ± 0.0042	-0.003 ± 0.03	-0.006 ± 0.0042	-0.017 ± 0.013
BE3C:PAI-I	-0.526 ± 0.018	-0.011 ± 0.023	0.0015 ± 0.021	0.032 ± 0.014	0.0145 ± 0.012	-0.0035 ± 0.021	-0.072 ± 0.018	-0.0025 ± 0.005	0.0015 ± 0.0035	0.0025 ± 0.0035	-0.0045 ± 0.047	-0.013 ± 0.017	-0.012 ± 0.02	0.009 ± 0.018	-0.004 ± 0.018	0.006 ± 0.061	0.009 ± 0.033	-0.0245 ± 0.023
BE3C:SRB	-0.231 ± 0.012	-0.001 ± 0.0042	0 ± 0.0014	0.0055 ± 0.018	-0.004 ± 0.0057	-0.0055 ± 0.00071	-0.0115 ± 0.00071	0.0035 ± 0.005	0.0005 ± 0.0035	-0.0035 ± 0.0092	-0.006 ± 0.0057	-0.003 ± 0.0028	0 ± 0.0028	0.003 ± 0.0014	-0.001 ± 0.0057	0.018 ± 0.0085	-0.0035 ± 0.0035	-0.003 ± 0.0042
BE3C:tPA	-0.452 ± 0.005	-0.004 ± 0.034	-0.053 ± 0.013	0.0595 ± 0.013	-0.0145 ± 0.035	-0.0265 ± 0.044	-0.008 ± 0.061	-0.003 ± 0.0028	0.004 ± 0.0099	0.0015 ± 0.0064	-0.018 ± 0.025	-0.0275 ± 0.0064	-0.0195 ± 0.011	0.02 ± 0.075	-0.001 ± 0.044	-0.025 ± 0.027	0.0005 ± 0.026	-0.026 ± 0.037
BE3C:uPA	-0.349 ± 0.005	-0.0015 ± 0.022	-0.0145 ± 0.039	-0.004 ± 0.023	-0.0105 ± 0.011	0.0055 ± 0.013	-0.0075 ± 0.0021	-0.002 ± 0.02	-0.0135 ± 0.005	-0.0005 ± 0.0021	0.0045 ± 0.032	-0.0105 ± 0.026	0.015 ± 0.0071	-0.01 ± 0.038	-0.021 ± 0.031	-0.0355 ± 0.052	0.0115 ± 0.011	-0.0055 ± 0.013
CASM3C:CCL2/MCP-1	-0.0045 ± 0.023	-0.003 ± 0.024	-0.013 ± 0.0071	-0.0115 ± 0.036	0.0125 ± 0.012	-0.007 ± 0.017	-0.004 ± 0.017	-0.0085 ± 0.0092	-0.0065 ± 0.011	0.015 ± 0.038	-0.0115 ± 0.0064	-0.001 ± 0.02	0.0165 ± 0.013	-0.016 ± 0.013	-0.016 ± 0.0085	0.0165 ± 0.039	-0.013	0.02 ± 0.016
CASM3C:CD87/uPAR	0.0205 ± 0.018	0.0025 ± 0.032	0.01 ± 0.024	-0.0165 ± 0.046	-0.019 ± 0.024	-0.026 ± 0.034	-0.011 ± 0.018	-0.012 ± 0.0057	-0.014 ± 0.0085	-0.0015 ± 0.0064	-0.016 ± 0.042	-0.028 ± 0.025	-0.012 ± 0.0057	0.027 ± 0.0028	0.0265 ± 0.013	0.03 ± 0.024	0.007 ± 0.011	-0.0045 ± 0.026
